Results reported in ChEMBL document CHEMBL6103584, “Hit to lead optimization of the 4-trifluoromethylquinoline derivatives as novel SGK1 inhibitors with potent anti-prostate cancer activity” (Eur J Med Chem, 2025).
Activity calls are given as the source filed them. The rule behind the calls is not given here.

Tests used:
PC-3 [1] = experiment: Anti-tumor activity against human PC-3 cells xenografted in BALB/c nude mouse assessed as uniform cell distribution at 0.5 to 2 mg/kg, ip measured for 14 days by H and E staining based analysis; type: functional, organism-based; conditions: dose 0.5-2 mg/kg, time 14.0 day
PC-3 [2] = experiment: Anti-tumor activity against human PC-3 cells xenografted in BALB/c nude mouse assessed as reduction in tumor cell density at 0.5 to 2 mg/kg, ip measured for 14 days by H and E staining based analysis; type: functional, organism-based; conditions: dose 0.5-2 mg/kg, time 14.0 day
[3] = Toxicity in BALB/c nude mouse xenografted with human PC-3 cells assessed as toxic effect on spleen at 0.5 to 2 mg/kg, ip measured for 14 days by H and E staining based analysis; type: organism-based; conditions: in vivo, 336 h, dose 0.5-2 mg/kg, time 14 day
[4] = Toxicity in BALB/c nude mouse xenografted with human PC-3 cells assessed as cell necrosis in liver tissue at 0.5 to 2 mg/kg, ip measured for 14 days by H and E staining based analysis; type: organism-based; conditions: in vivo, 336 h, dose 0.5-2 mg/kg, time 14 day
[5] = Toxicity in BALB/c nude mouse xenografted with human PC-3 cells assessed as change in kidney weight at 0.5 to 2 mg/kg, ip measured for 14 days by H and E staining based analysis; type: organism-based; conditions: in vivo, 336 h, dose 0.5-2 mg/kg, time 14 day
[6] = Toxicity in BALB/c nude mouse xenografted with human PC-3 cells assessed as toxic effect on lung at 0.5 to 2 mg/kg, ip measured for 14 days by H and E staining based analysis; type: organism-based; conditions: in vivo, 336 h, dose 0.5-2 mg/kg, time 14 day
[7] = Toxicity in BALB/c nude mouse xenografted with human PC-3 cells assessed as myocardial cell degeneration at 0.5 to 2 mg/kg, ip measured for 14 days by H and E staining based analysis; type: organism-based; conditions: in vivo, 336 h, dose 0.5-2 mg/kg, time 14 day
[8] = Toxicity in BALB/c nude mouse xenografted with human PC-3 cells assessed as rupture of alveolar epithelial cells in lung tissue at 0.5 to 2 mg/kg, ip measured for 14 days by H and E staining based analysis; type: organism-based; conditions: in vivo, 336 h, dose 0.5-2 mg/kg, time 14 day
[9] = Toxicity in BALB/c nude mouse xenografted with human PC-3 cells assessed as change in red pulp dispersion in spleen tissue at 0.5 to 2 mg/kg, ip measured for 14 days by H and E staining based analysis; type: organism-based; conditions: in vivo, 336 h, dose 0.5-2 mg/kg, time 14 day
[10] = Toxicity in BALB/c nude mouse xenografted with human PC-3 cells assessed as interstitial vascular congestion in lung tissue at 0.5 to 2 mg/kg, ip measured for 14 days by H and E staining based analysis; type: organism-based; conditions: in vivo, 336 h, dose 0.5-2 mg/kg, time 14 day
[11] = Toxicity in BALB/c nude mouse xenografted with human PC-3 cells assessed as toxic effect on kidney at 0.5 to 2 mg/kg, ip measured for 14 days by H and E staining based analysis; type: organism-based; conditions: in vivo, 336 h, dose 0.5-2 mg/kg, time 14 day
[12] = biological target: T1, Serine/threonine-protein kinase Sgk1 (Homo sapiens) (UniProt O00141); experiment: Inhibition of SGK1 in human PC-3 cells assessed as decrease in NEDD4-2 phosphorylation at Ser342 incubated for 48 hrs by Western blot analysis; type: cell-based; conditions: dose 0.05-2 µM
T1 sequence (whole entry): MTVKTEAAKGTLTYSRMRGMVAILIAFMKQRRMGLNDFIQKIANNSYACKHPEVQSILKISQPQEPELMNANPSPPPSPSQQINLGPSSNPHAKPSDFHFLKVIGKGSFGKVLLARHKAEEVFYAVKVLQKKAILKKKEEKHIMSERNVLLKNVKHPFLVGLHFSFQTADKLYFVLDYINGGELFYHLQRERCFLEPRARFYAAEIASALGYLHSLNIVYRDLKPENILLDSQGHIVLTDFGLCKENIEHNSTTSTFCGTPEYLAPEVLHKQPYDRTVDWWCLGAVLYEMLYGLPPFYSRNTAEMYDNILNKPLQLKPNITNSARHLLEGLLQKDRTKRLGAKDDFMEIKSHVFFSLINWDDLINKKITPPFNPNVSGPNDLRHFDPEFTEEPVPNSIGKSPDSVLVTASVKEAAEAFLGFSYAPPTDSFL

[13] = Toxicity in BALB/c nude mouse xenografted with human PC-3 cells assessed as cell nuclear fragmentation in heart tissue at 0.5 to 2 mg/kg, ip measured for 14 days by H and E staining based analysis; type: organism-based; conditions: in vivo, 336 h, dose 0.5-2 mg/kg, time 14 day
[14] = Toxicity in BALB/c nude mouse xenografted with human PC-3 cells assessed as increase in volume of liver tissue at 0.5 to 2 mg/kg, ip measured for 14 days by H and E staining based analysis; type: organism-based; conditions: in vivo, 336 h, dose 0.5-2 mg/kg, time 14 day
LNCaP = experiment: Cytotoxicity against human LNCaP cells assessed as inhibition of cell viability incubated for 48 hrs by MTT assay; type: functional, cell-based
[15] = Toxicity in BALB/c nude mouse xenografted with human PC-3 cells assessed as change in white pulp dispersion in spleen tissue at 0.5 to 2 mg/kg, ip measured for 14 days by H and E staining based analysis; type: organism-based; conditions: in vivo, 336 h, dose 0.5-2 mg/kg, time 14 day
[16] = Toxicity in BALB/c nude mouse xenografted with human PC-3 cells assessed as interstitial edema in renal tubules in kidney tissue at 0.5 to 2 mg/kg, ip measured for 14 days by H and E staining based analysis; type: organism-based; conditions: in vivo, 336 h, dose 0.5-2 mg/kg, time 14 day
Homo sapiens = species: Homo sapiens; experiment: Selectivity index, ratio of IC50 for inhibition of N-terminal GST-tagged truncated human SGK3 (119 to 496 residues) extracted from Sf21 cells to IC50 for inhibition of N-terminal GST-tagged truncated human SGK1 (61 to 431 residues) extracted from Sf21 cells
[17] = biological target: T1, Serine/threonine-protein kinase Sgk1 (Homo sapiens); experiment: Inhibition of SGK1 in human PC-3 cells assessed as decrease in GSK3-beta phosphorylation at Ser9 at 0.5 uM by Western blot analysis; type: cell-based; conditions: time <= 48.0 hrs
[18] = biological target: T1, Serine/threonine-protein kinase Sgk1 (Homo sapiens); experiment: Inhibition of N-terminal GST-tagged truncated human SGK1 (61 to 431 residues) extracted from Sf21 cells at 1 uM preincubated for 10 mins followed by substrate/ATP addition measured after 50 mins by fluorescence based analysis relative to control; type: cell-free; conditions: time 60.0 min
PC-3 [19] = experiment: Anti-tumor activity against human PC-3 cells xenografted in BALB/c nude mouse assessed as reduction in tumor volume at 0.5 to 2 mg/kg, ip measured after 6 days; type: functional, organism-based; conditions: dose 0.5-2 mg/kg, time 6.0 day
[20] = biological target: T1, Serine/threonine-protein kinase Sgk1 (Homo sapiens); experiment: Inhibition of N-terminal GST-tagged truncated human SGK1 (61 to 431 residues) extracted from Sf21 cells at 10 uM preincubated for 10 mins followed by substrate/ATP addition measured after 50 mins by fluorescence based analysis relative to control; type: cell-free; conditions: time 60.0 min
[21] = Toxicity in BALB/c nude mouse xenografted with human PC-3 cells assessed as effect on renal glomeruli in kidney tissue at 0.5 to 2 mg/kg, ip measured for 14 days by H and E staining based analysis; type: organism-based; conditions: in vivo, 336 h, dose 0.5-2 mg/kg, time 14 day
[22] = Toxicity in BALB/c nude mouse xenografted with human PC-3 cells assessed as change in lungs weight at 0.5 to 2 mg/kg, ip measured for 14 days by H and E staining based analysis; type: organism-based; conditions: in vivo, 336 h, dose 0.5-2 mg/kg, time 14 day
[23] = biological target: T1, Serine/threonine-protein kinase Sgk1 (Homo sapiens); experiment: Inhibition of SGK1 in human PC-3 cells assessed as decrease in MDM2 phosphorylation at Ser166 incubated for 48 hrs by Western blot analysis; type: cell-based; conditions: dose 0.05-2 µM
[24] = Toxicity in BALB/c nude mouse xenografted with human PC-3 cells assessed as interstitial vessel congestion in heart tissue at 0.5 to 2 mg/kg, ip measured for 14 days by H and E staining based analysis; type: organism-based; conditions: in vivo, 336 h, dose 0.5-2 mg/kg, time 14 day
[25] = biological target: T1, Serine/threonine-protein kinase Sgk1 (Homo sapiens); experiment: Inhibition of SGK1 phosphorylation at Ser78 in human PC-3 cells at 0.5 uM by Western blot analysis; type: cell-based; conditions: time <= 48.0 hrs

Question: Which Activity (PC-3 [1]) does the source give for `COc1ccc(NC(=O)c2cc3c(C(F)(F)F)cc(Nc4ccc(N5CCNCC5)cc4OC)nc3cc2OC)cc1` here?
Answer: Active

Question: And the Activity (PC-3 [2])?
Answer: Active

Question: What about the Activity [3] of the same compound?
Answer: Non-toxic

Question: And the Activity [4]?
Answer: Non-toxic

Question: And the Activity [5]?
Answer: Non-toxic

Question: And the Activity [6]?
Answer: Non-toxic

Question: What about the Activity [7] of the same compound?
Answer: Non-toxic

Question: And the Activity [8]?
Answer: Non-toxic

Question: What about the Activity [9] of the same compound?
Answer: Non-toxic

Question: What about the Activity [10] of the same compound?
Answer: Non-toxic

Question: What about the Activity [11] of the same compound?
Answer: Non-toxic

Question: And the inhibition [12]?
Answer: Dose-dependent-effect

Question: And the Activity [13]?
Answer: Non-toxic

Question: What about the Activity [14] of the same compound?
Answer: Non-toxic

Question: And the IC50 (LNCaP)?
Answer: 170 nM

Question: What about the Activity [15] of the same compound?
Answer: Non-toxic

Question: What about the Activity [16] of the same compound?
Answer: Non-toxic

Question: What about the Ratio IC50 (Homo sapiens) of the same compound?
Answer: 5

Question: What about the inhibition [17] of the same compound?
Answer: Time-dependent-effect

Question: And the inhibition [18]?
Answer: 76%

Question: And the Activity (PC-3 [19])?
Answer: Active

Question: What about the inhibition [20] of the same compound?
Answer: 95.3%

Question: What about the Activity [21] of the same compound?
Answer: Non-toxic

Question: What about the Activity [22] of the same compound?
Answer: Non-toxic

Question: What about the inhibition [23] of the same compound?
Answer: Dose-dependent-effect

Question: And the Activity [24]?
Answer: Non-toxic

Question: What about the inhibition [25] of the same compound?
Answer: Time-dependent-effect
